We go through 21 compounds from patent US20260078130A1, “NAMPT MODULATORS, PREPARATIONS, AND USES THEREOF” (SIRONAX LTD., priority 2022, published 2026).

The target of assay [1] is T1, human enzyme NAMPT (full length) (Homo sapiens, UniProt P43490).
T1 construct: human enzyme NAMPT (full length)
Kind of assay: NMN fluorescence biochemical assay (stimulation of NMN synthesis by NAMPT). Particulars: for EC50: concentration giving half-maximal activation, read-out: Enzymatic EC50; for Enzymatic Emax: fold change of maximal activation compared to DMSO. The gist of the method:
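Full-length human NAMPT (100 nM) was preincubated 15 min at 37 °C with compound in 50 mM Tris-HCl pH 7.5, 10 mM MgCl2, 2 mM DTT, then reacted 1 h at 37 °C with 50 μM NAM, 100 μM PRPP, 4 mM ATP (stated solution concentrations). NMN was derivatised with acetophenone/KOH then formic acid and read at Ex/Em 382/445 nm; EC50 and Emax (fold over DMSO) reported.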

Assay [2] deals with endogenous NAMPT in U2OS cells. Briefly: Cellular NAD+ modulation assay (NAD/NADH-Glo, U2OS cells). The assay is classed as cell-based. Particulars: Homo sapiens; for maximal fold induction: read-out: Cellular Emax. The procedure: Certain compounds described herein were also assayed for their ability to stimulate the endogenous NAMPT in a native cellular environment in a cellular NAD^+ modulation assay. U2OS cells were grown in McCoy's 5A medium with 10% fetal bovine serum, in a humidified incubator with an atmosphere of 95% air and 5% CO2 at 37° C. The assays were initiated by plating 30 μL of U2OS cells in a culture medium with 10% fetal bovine serum, at a density of 3000 cells per well in a Corning® 384-well White/Clear Bottom Polystyrene Microplate. The plates were incubated in 37T incubators for a period of 16 hours. Test compounds with a series of concentrations in DMSO were added to the plates in a volume of 150 nL using Echo Liquid handlers. The plates are then incubated for 24 hours. The medium was removed from the wells, then 10 μL PBS was added to each well. To each well of cells in 10 μL of PBS, 10 μL of base solution with 1% DTAB was added. The plate was briefly mixed on a plate shaker to ensure homogeneity and cell lysis (5 mins). 10p L of 0.4N HCl was added per well. The plate was coved, and all samples were incubated for 15 minutes at 60° C. Then the plate was equilibrated for 10 minutes at room temperature. 10 μL of 0.5M Trizma® base was added to each well of acid-treated cells to neutralize the acid. Finally, 30 μL of NAD/NADH-Glo™ Detection Reagent was added. The plate was gently shaken to mix the samples. The plate was incubated for 40 minutes at room temperature. Luminescence was recorded using a luminometer. The potency measurements for the test compounds were quantified and represented as EC50 (concentration of a compound that gives half-maximal activation) and Emax (fold change of a compound's maximal activation compared to DMSO).

The mark [3] stands for this setting: NMN synthesis by purified human NAMPT (100 nM).
[4] abbreviates: 24 hours incubation with compound.
Where [5] appears, read: NMN fluorescence assay, purified human NAMPT 100 nM.
Where [6] appears, read: 24 hours incubation, cellular NAD+.

Like-named read-outs stand apart in the source and are kept apart here.

T1 sequence (P43490 whole entry): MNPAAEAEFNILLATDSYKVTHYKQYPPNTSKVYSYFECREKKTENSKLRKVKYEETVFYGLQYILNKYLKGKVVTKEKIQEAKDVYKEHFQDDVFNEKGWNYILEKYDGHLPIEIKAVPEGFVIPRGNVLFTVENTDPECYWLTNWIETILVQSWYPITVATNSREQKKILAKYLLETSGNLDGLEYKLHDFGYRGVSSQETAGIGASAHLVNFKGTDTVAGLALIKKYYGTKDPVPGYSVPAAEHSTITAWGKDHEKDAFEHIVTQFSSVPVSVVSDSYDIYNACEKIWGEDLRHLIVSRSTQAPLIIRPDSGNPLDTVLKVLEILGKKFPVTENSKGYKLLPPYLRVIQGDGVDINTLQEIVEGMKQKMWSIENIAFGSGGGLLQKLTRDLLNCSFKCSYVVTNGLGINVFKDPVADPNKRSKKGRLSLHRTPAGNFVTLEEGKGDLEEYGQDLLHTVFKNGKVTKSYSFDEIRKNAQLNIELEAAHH

As a reminder, the EC50 is the midpoint of the concentration-response curve. For `Cn1ncc(Cl)c1CC1c2ccccc2C(=O)N1Cc1ccc2[nH]nnc2c1` (stereo not shown) [Compound 279, 2-((1H-benzo[d][1,2,3]triazol-5-yl)methyl)-3-((4-chloro-1-methyl-1H-pyrazol-5-yl)methyl) isoindolin-1-one], the EC50 in assay [1] (setting [3]) is below 500 nM. In assay [1], the “Enzymatic Emax” value is on record as “B (3≥B>2)”. In assay [2] (setting [4]), the EC50 is below 500 nM and the maximal fold induction was above 1.5.

`CC1c2cc(C3COC3)ccc2C(=O)N1Cc1ccc2[nH]c(=O)oc2c1` (single isomer, unassigned) [Compound 198]: the EC50 in assay [1] (setting [3]) and in assay [2] (setting [4]) was 500 to 5000 nM in each case. Besides, the “Enzymatic Emax” value in assay [1] was “B (3≥B>2)”. Further, the maximal fold induction in assay [2] (setting [4]) was above 1.5.

`CN1C[C@]2(C[C@H](CN3C(=O)c4ccccc4[C@@H]3Cc3c(Cl)cnn3C)C2)OC1=O` [Compound 551, (2s,4R)-2-(((S)-1-((4-chloro-1-methyl-1H-pyrazol-5-yl)methyl)-3-oxoisoindolin-2-yl)methyl)-7-methyl-5-oxa-7-azaspiro[3.4]octan-6-one]: the EC50 in assay [1] (setting [5]) lay within 500 to 5000 nM. Further, the “Enzymatic Emax” value in assay [1] is given as “B (3≥B>2)”. Further, in assay [2] (setting [6]), the EC50 is below 500 nM and the maximal fold induction is above 1.5.

Turning to `Cc1ccnc(C#N)c1CC1c2ccccc2C(=O)N1Cc1ccc2[nH]nnc2c1` (stereo not shown) [Compound 284, 3-((2-((1H-benzo[d][1,2,3]triazol-5-yl)methyl)-3-oxoisoindolin-1-yl)methyl)-4-methylpicolinonitrile], the EC50 in assay [1] (setting [3]) was below 500 nM. Further, the “Enzymatic Emax” value in assay [1] is recorded as “A (A>3)”. In assay [2] (setting [4]), the EC50 is below 500 nM and the maximal fold induction lay within 1.2 to 1.5.

Take `Cn1ncc(Cl)c1CC1c2ccccc2C(=O)N1CC1CC(C(N)=O)C1` (stereo not shown) [Compound 562, 3-((1-((4-chloro-1-methyl-1H-pyrazol-5-yl)methyl)-3-oxoisoindolin-2-yl)methyl)cyclobutane-1-carboxamide]: the EC50 in assay [1] (setting [5]) lay in the range of 500 to 5000 nM. The “Enzymatic Emax” value in assay [1] is recorded as “B (3≥B>2)”. Further, in assay [2] (setting [6]), the EC50 was below 500 nM and the maximal fold induction was in the range of 1.2 to 1.5.

Regarding `Cc1ccccc1CC1c2cccnc2C(=O)N1Cc1ccc2[nH]c(=O)oc2c1` (stereo not shown) [Compound 160, 6-((5-(2-methylbenzyl)-7-oxo-5,7-dihydro-6H-pyrrolo[3,4-b]pyridin-6-yl)methyl)benzo[d]oxazol-2(3H)-one], the EC50 in assay [1] (setting [3]) and in assay [2] (setting [4]) was 500 to 5000 nM throughout. The “Enzymatic Emax” value in assay [1] is listed as “B (3≥B>2)”. In addition, the maximal fold induction in assay [2] (setting [4]) was above 1.5.

For the compound `Cc1c(CC2c3ccccc3C(=O)N2Cc2ccc3[nH]nnc3c2)c(C#N)nn1C` (stereo not shown) [Compound 393, 4-((2-((1H-benzo[d][1,2,3]triazol-5-yl)methyl)-3-oxoisoindolin-1-yl)methyl)-1,5-dimethyl-1H-pyrazole-3-carbonitrile], the EC50 in assay [1] (setting [5]) is below 500 nM. Besides, the “Enzymatic Emax” value in assay [1] is listed as “B (3≥B>2)”. In assay [2] (setting [6]), the EC50 is below 500 nM and the maximal fold induction was above 1.5.

Take `Cn1ncc(Cl)c1CC1c2scnc2C(=O)N1Cc1ccc(O)cc1` (stereo not shown) [Compound 430, 6-((4-chloro-1-methyl-1H-pyrazol-5-yl)methyl)-5-(4-hydroxybenzyl)-5,6-dihydro-4H-pyrrolo[3,4-d]thiazol-4-one]: the EC50 in assay [1] (setting [5]) and in assay [2] (setting [6]) was below 500 nM in each case. Further, the “Enzymatic Emax” value in assay [1] is recorded as “B (3≥B>2)”. In addition, the maximal fold induction in assay [2] (setting [6]) was above 1.5.

As to `Cn1ncc(Cl)c1CC1c2ccccc2C(=S)N1CC1CC2(CNC(=O)O2)C1` (stereo not shown) [Compound 482, 2-((1-((4-chloro-1-methyl-1H-pyrazol-5-yl)methyl)-3-thioxoisoindolin-2-yl)methyl)-5-oxa-7-azaspiro[3.4]octan-6-one], the EC50 in assay [1] (setting [5]) was below 500 nM. The “Enzymatic Emax” value in assay [1] was “B (3≥B>2)”. Further, in assay [2] (setting [6]), the EC50 is below 500 nM and the maximal fold induction was above 1.5.

With `CC1c2cc(CN(C)C)ccc2C(=O)N1Cc1ccc2[nH]c(=O)oc2c1` (single isomer, unassigned) [Compound 273], the EC50 was at least 5000 nM in assay [1] (setting [3]) and 500 to 5000 nM in assay [2] (setting [4]). Also, in assay [1], the “Enzymatic Emax” value is on record as “B (3≥B>2)”. For the same compound, the maximal fold induction in assay [2] (setting [4]) lay within 1.2 to 1.5.

For the compound `C[C@H]1c2ccccc2C(=O)N1Cc1ccc2[nH]c(=O)oc2c1` [Compound 56, (S)-6-((1-methyl-3-oxoisoindolin-2-yl)methyl)benzo[d]oxazol-2(3H)-one], in assay [1] (setting [3]), the concentration giving a half-maximal response (EC50) was at least 5000 nM. Further, in assay [1], the “Enzymatic Emax” value is recorded as “A (A>3)”. Further, in assay [2] (setting [4]), the EC50 was 500 to 5000 nM and the maximal fold induction is above 1.5.

As to `Cn1ncc(Cl)c1CC1c2ccccc2C(=O)N1CC1CC1C(N)=O` (stereo not shown) [Compound 582, 2-((1-((4-chloro-1-methyl-1H-pyrazol-5-yl)methyl)-3-oxoisoindolin-2-yl)methyl)cyclopropane-1-carboxamide], the EC50 in assay [1] (setting [5]) is at least 5000 nM. For the same compound, the “Enzymatic Emax” value in assay [1] is listed as “C (2≥C)”. Besides, in assay [2] (setting [6]), the EC50 was in the range of 5000 to 50000 nM and the maximal fold induction is 1.2 to 1.5.

Consider `N#Cc1cccnc1CC1c2ccccc2C(=O)N1Cc1ccc2[nH]c(=O)oc2c1` (stereo not shown) [Compound 257, 2-((3-oxo-2-((2-oxo-2,3-dihydrobenzo[d]oxazol-6-yl)methyl)isoindolin-1-yl)methyl) nicotinonitrile], for which, in assay [1] (setting [3]), the EC50 is 500 to 5000 nM. In addition, in assay [1], the “Enzymatic Emax” value is given as “A (A>3)”. Besides, in assay [2] (setting [4]), the EC50 is below 500 nM and the maximal fold induction is above 1.5.

As to `O=C1c2ccccc2C(Cc2ncco2)N1Cc1ccc2[nH]c(=O)oc2c1` (stereo not shown) [Compound 150, 6-((1-(oxazol-2-ylmethyl)-3-oxoisoindolin-2-yl)methyl)benzo[d]oxazol-2(3H)-one], the EC50 in assay [1] (setting [3]) is at least 5000 nM. Further, the “Enzymatic Emax” value in assay [1] is given as “A (A>3)”. Besides, in assay [2] (setting [4]), the concentration for a half-maximal effect (EC50) lay within 5000 to 50000 nM and the maximal fold induction was above 1.5.

As for `Cn1ncc(Cl)c1CC1c2ccccc2C(=O)N1Cc1ccc2c(cnn2C)c1` (stereo not shown) [Compound 586, 3-((4-chloro-1-methyl-1H-pyrazol-5-yl)methyl)-2-((1-methyl-1H-indazol-5-yl)methyl)isoindolin-1-one], the EC50 in assay [1] (setting [5]) is at least 5000 nM. The “Enzymatic Emax” value in assay [1] is “C (2≥C)”.

Consider `NC(=O)c1ccc(CC2c3ccccc3C(=O)N2Cc2ccc3[nH]c(=O)oc3c2)cc1` (stereo not shown) [Compound 253, 4-((3-oxo-2-((2-oxo-2,3-dihydrobenzo[d]oxazol-6-yl)methyl)isoindolin-1-yl)methyl) benzamide], for which the EC50 in assay [1] (setting [3]) was at least 5000 nM. The “Enzymatic Emax” value in assay [1] is recorded as “A (A>3)”.

With `COC(C)(C)c1ccc2c(c1)C(Cc1c(Cl)cnn1C)N(Cc1ccc3[nH]nnc3c1)C2=O` (stereo not shown) [Compound 396, 2-((1H-benzo[d][1,2,3]triazol-5-yl)methyl)-3-((4-chloro-1-methyl-1H-pyrazol-5-yl)methyl)-5-(2-methoxypropan-2-yl)isoindolin-1-one], in assay [1] (setting [5]), the concentration for a half-maximal effect (EC50) was in the range of 500 to 5000 nM. For the same compound, the “Enzymatic Emax” value in assay [1] is recorded as “B (3≥B>2)”.

For the compound `O=C1c2ccccc2C(Cc2ncccc2Br)N1Cc1ccc(O)cc1` (stereo not shown) [Compound 429, 3-((3-bromopyridin-2-yl)methyl)-2-(4-hydroxybenzyl)isoindolin-1-one], in assay [1] (setting [5]), the EC50 is below 500 nM. For the same compound, the “Enzymatic Emax” value in assay [1] was “C (2≥C)”.

`Cn1c(CC2c3ccccc3C(=O)N2CC2CC3(CNC(=O)O3)C2)cccc1=O` (stereo not shown) [Compound 494, 2-((1-((1-methyl-6-oxo-1,6-dihydropyridin-2-yl)methyl)-3-oxoisoindolin-2-yl)methyl)-5-oxa-7-azaspiro[3.4]octan-6-one]: in assay [1] (setting [5]), the EC50 is at least 5000 nM. In addition, in assay [1], the “Enzymatic Emax” value was “C (2≥C)”.

In the case of `CC1c2cc(Cl)ccc2C(=O)N1Cc1ccc2[nH]c(=O)oc2c1` (stereo not shown) [Compound 265, 6-((5-chloro-3-methyl-1-oxoisoindolin-2-yl)methyl)benzo[d]oxazol-2(3H)-one], in assay [1] (setting [3]), the EC50 is at least 5000 nM. Further, in assay [1], the “Enzymatic Emax” value is “A (A>3)”.

Take `Cc1ccnc(C#N)c1CC1c2ccccc2C(=O)N1CC1CCc2[nH]nnc2C1` (stereo not shown) [Compound 454, 4-methyl-3-((3-oxo-2-((4,5,6,7-tetrahydro-1H-benzo[d][1,2,3]triazol-5-yl)methyl)isoindolin-1-yl)methyl)picolinonitrile]: in assay [1] (setting [5]), the concentration for a half-maximal effect (EC50) was at least 5000 nM. In addition, the “Enzymatic Emax” value in assay [1] is recorded as “C (2≥C)”.
